Test results as given in patent US20030089472A1, “Laccase activity enhancers for pulp bleaching” (priority 2001, published 2003).

Tested on: laccase (NS51003, Novozymes A/S, Denmark)
Experiment: Delignification of a softwood Kraft pulp using a laccase-mediator system (change in Kappa number, TAPPI T236 cm-85)
Format: biochemical
Settings: for Kappa # (Mediator): pH 5.5
Description: Delignification of a Softwood Kraft Pulp Using a Laccase-Mediator System in the Presence of a Mediator
In the following example, a softwood Kraft pulp was delignified using a laccase-mediator system. The Kraft process is well known to those skilled in the art and is described, for example, by Swen A. Rydholm in “Pulping Process”, Interscience Publishers, New York, N.Y. (1965), p. 576.
A softwood Kraft pulp, Kappa number 31.0, was treated with a laccase (NS51003, Novozymes A/S, Denmark) under the following conditions:
The dried pulp was added to 80 ml of 50 mM phosphate, pH 5.5, and disintegrated in a blender. The pulp was then transferred to a 500 ml conical flask, and the blender was washed with 20 ml of the same buffer. The washed buffer and the pulp were combined. The mediator was added at 1-4% (w/w, based on the dry pulp) (Dosage) followed by the addition of the laccase. The pH of the pulp mixture was adjusted to 5.5 if needed. The flask was covered with an aluminum foil with holes punched through and incubated at 50° C. for 16 hrs on a rotary shaker at 200 rpm.
After the enzymatic treatment, the pulp mixture was filtered through a Buchner funnel and the pulp was washed with water. The pulp from the control experiment was treated at the same pH and temperature as described above in the absence of mediators.
The washed pulp was then treated with an alkaline solution under the following conditions:
The filtered pulp was repulped in the alkaline solution and incubated at 70° C. for 3 hrs. The pH of the pulp mixture should be between 11.7-12.00 during the entire treatment. After the treatment, the pulp mixture was filtered through a Buchner funnel, and the pulp was washed with water extensively, and then dried in a hood overnight.
The delignification of the pulp was measured as the change in Kappa number according to TAPPI method T236 cm−85. Briefly, a known mass of paper pulp (containing lignin) was reacted with an excess of potassium permanganate in acid solution for a specified period of time to oxidize the lignin. After the reaction, the residual permanganate was determined by titration. The Kappa number was defined as the volume (ml) of 0.1N potassium permanganate consumed by 1 g of moisture-free pulp in 0.5N sulfuric acid after a ten minute reaction time at 25° C. under conditions such that one-half of the permanganate remained unreacted. A linear relationship with the lignin content of the pulp and the measurement of the Kappa number had already been done on samples as low as 300 mg of pulp.

C(=NCc1ccccc1)c1ccccc1 [N-Benzylidene-benzylamine]
Δ Kappa #: −0.3
Kappa # (Mediator): 28.3

Oc1ccccc1 [Phenol]
Δ Kappa #: −1.1
Kappa # (Mediator): 25.0

CN(C)C(=S)[S-].O.[Na+] [Sodium dimethyldithio carbonate hydrate]
Δ Kappa #: −0.7
Kappa # (Mediator): 28.6

Cc1ccc2nc(-c3ccc(N=NNc4ccc(-c5nc6ccc(C)c(S(=O)(=O)[O-])c6s5)cc4)cc3)sc2c1S(=O)(=O)[O-].[Na+].[Na+] [Thiazol Yellow G]
Δ Kappa #: −3.0
Kappa # (Mediator): 21.9
